Experimental data published in patent US10202604B2, “Methods of using microRNA-141” (Stemirna Therapeutics Co., Ltd., priority 2016, dated 2019).

How the values were obtained:
prostate cancer cells = assay: Cell death and senescence; assay type: cell-based; conditions: miR-141 expression
[1] = tested on: epithelial to mesenchymal transition markers in Du145 cells; assay: qPCR analysis of epithelial to mesenchymal transition markers; assay type: cell-based, human
Experimental: FIGS. 3A-3J show partial suppression of epithelial to mesenchymal transition by miR-141 and CD44 as a direct target of miR-141. FIGS. 3A-3B show qPCR analysis of epithelial to mesenchymal transition markers in bulk (FIG. 3A) or CD44^+ (FIG. 3B) Du145 cells transfected with the miR-141 oligos (30 nM; 48 h). Results were presented as the relative expression levels over the cells transfected with the NC oligos. […] GAPDH was used as control and the relative protein levels after normalizing to GAPDH and NC controls were indicated below each lane. […] Shown below is the actual sequence in the region with the mutated miR-141 binding sequence indicated in grey (below). […] Shown are representative images. […] Du145 cells were co-transfected with NC or miR-141 oligos (30 nM) together with pBabe empty vector or pBabe-CD44 vector. After 48 h, cells were harvested for invasion assays. Bars, mean±SD. *, P<0.05; **, P<0.01.
Total RNA was extracted using microRNA isolation kit (Life Technologies) according to the manufacturer's instructions. microRNA qPCRs were performed using TaqMan microRNA assays (Life Technologies). qPCR data for microRNAs were normalized to RNU48 whereas qPCR data for mRNAs were normalized to GAPDH.

[2] = tested on: CD44+ and bulk human prostate cancer (HPCa) cells freshly purified from patient tumors; assay: Clonal and sphere formation assays, primary patient cells; assay type: cell-based
Experimental: Average % of CD44^+ cells (as determined by flow analysis; n=3-5) is indicated for each cell type (UD, undetectable). […] Purified CD44^+ Du145 cells were transfected with NC or miR-141 oligos (30 nM, 48 h) and then plated for clonal (1D & 1E) and sphere (1F) assays. Bars represent mean±SD. *, P<0.05; **, P<0.01. […] Shown are tumor images, cell numbers injected (100,000 cells per injection for all models), site of injection (s.c, subcutaneously) and days (d) when tumors were harvested. Tumor weight and incidences with corresponding P values are also indicated. ns, not significant. […] For 1st generation (1°) sphere assays, 1,000 cells per well were plated in triplicate for each group in 12-well plate and results scored in 11 days. For 2nd generation (2°), the 1° spheres were harvested, digested with Collagenase and Trypsin into single cells, 1,000 cells/well were plated, and results scored in 10 days. Quantification of the colonies was plotted (1 L; **P<0.01). […]
For clonal assays, cultured prostate cancer cells or human prostate cancer cells freshly purified from patient primary tumors were plated at a clonal density (i.e., 100 cells/well) in a 6-well plate. The number of holoclones (33) was counted several days later. […] Floating spheres that arose in 1-2 weeks were counted. […]

[3] = tested on: cultured as well as primary patient human prostate cancer cells; assay: Matrigel invasion assay; assay type: cell-based
Experimental: For Boyden Chamber invasion assays, Biocoat Matrigel Invasion Chamber (BD, Franklin Lakes, N.J.) was employed following the manufacturer's instructions. Briefly, 100,000-200,000 of prostate cancer cells after transfection with […]/miR-141 oligos or infection with miR-141 over-expressing lentivirus were seeded into each well. Medium with 20% fetal bovine serum was used in the lower chamber as chemo-attractant. After 20 h, cells were fixed and stained using HEMA stain. Representative images were taken for each membrane and cells were counted. Migration assays were simultaneously performed in control wells using identical protocol with Transwell (Costar; […]) without Matrigel. In some experiments, Du145 cells were plated one day before and treated with 1, 2, and 5 μM of DZNep (3-Deazaneplanocin A) for 96 h after which cells were harvested and used in invasion assays and Western blot.

PPC-1 cells = assay: Clonal and sphere formation assays; assay type: cell-based, human
Experimental: For clonal assays, cultured prostate cancer cells or human prostate cancer cells freshly purified from patient primary tumors were plated at a clonal density (i.e., 100 cells/well) in a 6-well plate. The number of holoclones (33) was counted several days later. For Matrigel-based sphere formation assays, cells in medium were plated (generally 1,000 cells/well) in Matrigel at 1:1 ratio in a total of 100 μl in 96-well plates. Spheres were enumerated 1-2 weeks after plating. For floating sphere formation assays, cells were plated in serum-free epithelial basal medium (PrEBM) supplemented with B27 (Invitrogen), and 20 ng/ml EGF and bFGF in ultra-low attachment (ULA) plate. Floating spheres that arose in 1-2 weeks were counted. For all these experiments, a minimum of triplicate wells was run for each condition and repeat experiments were performed when necessary and feasible.

SUZ12 = SUZ12 protein level, Western blotting; assay type: cell-based, human; conditions: PC3 and Du145, 30 or 60 nM, 72 h
Experimental: FIG. 6A: Putative binding site of miR-141 in EZH2 3′-UTR. […] FIG. 6C is a qPCR analysis of EZH2 mRNA levels in CD44^+ PCa cells. Bars, mean±SD. *P<0.05; **P<0.01. […] Bars, mean±SD. **P<0.01. […] Western blotting was performed in PC3 and Du145 cells transfected with NC (60 nM) or miR-141 (30 or 60 nM) oligos (72 h). Relative protein levels were measured by densitometry and normalized to GAPDH levels (indicated below). […] Du145 cells plated one day before were treated with 1, 2, and 5 μM of DZNep for 96 h and then cells were harvested for invasion assays. **P<0.01. Inset, WB showing reduced EZH2 proteins by DZNep. […] Du145 cells were transfected with 10 nM scramble siRNA (siCon) or EZH2-targeting siRNAs (siEZH2) or siEZH2 plus anti-miR-141 (30 nM). 48 h later, cells were harvested for invasion assays. Bars, mean±SD. **P<0.01. […] Du145 cells were co-transfected with 30 nM NC or miR-141 oligos together with empty vector or pCMV-EZH2 construct. After 48 h, cells were harvested for invasion assay. Bars, mean±SD. **P<0.01.

miR-141: miR-141 mirVana mimics (Life Technologies); microRNA-141 oligonucleotide may have SEQ ID NO: 1; in some experiments over-expressed by lentiviral vectors (UAACACUGUCUGGUAAAGAUGG; listed as RNA, further chemistry not given here) [miR-141 mirVana mimics (Life Technologies); in some experiments over-expressed by lentiviral vectors]
effects on cell death and senescence (prostate cancer cells): minimal effects
E-cadherin (CDH1) mRNA ([1]; CD44+ Du145 cells, 30 nM, 48 h): significant increase
mRNA levels of mesenchymal markers including VIM and ZEB1 ([1]; CD44+ Du145 cells, 30 nM, 48 h): generally reduced
mRNA levels of most other EMT markers including FN, ZEB2, SNAI1, SNAI2, and TWIST ([1]; bulk Du145 cells): did not reduce
E-cadherin mRNA ([1]; bulk Du145 cells, 30 nM, 48 h): increased
VIM and ZEB1 mRNA ([1]; bulk Du145 cells, 30 nM, 48 h): decreased
clonal growth ([2]; miR-141 overexpression (Lenti-141 MOI 10, 72 h)): inhibited
serial sphere formation ([2]; miR-141 overexpression, CD44+ and bulk HPCa cells, 1st and 2nd generation spheres in Matrigel): inhibited
invasive capabilities [3]: significantly inhibited
clonal expansion (PPC-1 cells): inhibited
sphere formation (PPC-1 cells): inhibited
SUZ12 protein level (SUZ12): reduced
